How the values were obtained:
[1] = test system: SU-DHL-1; test: STAT3 decrease needed for SU-DHL-1 apoptosis and cell growth inhibition (FIG. 8, 17); format: cell-based
Source text: FIG. 8 depicts that a decrease of STAT3 by 90% using I-103 is necessary to induce SU-DHL-1 apoptosis and inhibit cell growth.
FIG. 17 depicts that a decrease of STAT3 by 90% using I-174 and I-94 is necessary to induce SU-DHL-1 apoptosis and inhibit cell growth.

[2] = test system: STAT3-mediated gene expression (SOCS3, PD-L1); test: RT-qPCR of STAT3, SOCS3 and PDL-1 mRNA levels in SU-DHL-1 cells; format: cell-based; conditions: FIG. 15
Method: FIG. 5. Includes graphical images and tables showing the results of RT-qPCR in SU-DHL-1 cells at 24 hours (A) with mRNA levels (% control) over I-103 concentration (nM)(x-axis) for STAT3, SOCS3, and PDL-1 genes and CellTiterGlo (CTG) cell viability at 4 days (B) with growth inhibition (% control) over I-103 concentration (nM)(x-axis) for MOLM-16 and SU-DHL-1 cell lines. Also shown are the results of MSD degradation DC50 (nM) in MOLM-16 and SU-DHL-1 cell lines at 24 hours.

[3] = test system: KI-JK cells; test: CellTiter-Glo cell viability, KI-JK; format: cell-based
[4] = test system: SU-DHL-1 tumor cells; test: Xenograph tumor study, SU-DHL-1; format: in vivo, NOD SCID mice; conditions: for tumor volume, 5 days / tumor volume, 10 days / tumor volume, 15 days / tumor volume, 20 days: SUDHL-1 xenograph, 2.5-30 mg/kg, 2 days on/5 days off
Method: (§1) Animals: 50 6-8 week old female NOD SCID mice weighing 18 to 20 grams. 25 mice were used in each study.
(§2) Method for Tumor Inoculation: Each mouse was inoculated subcutaneously with SU-DHL-1 tumor cells (1×107+Matrigel) or SUP-M2 tumor cells (5×106+Matrigel) in 0.1 ml of RPMI1640 medium supplemented with 10% FBS, 100 U/ml penicillin and […] streptomycin for tumor development. Mice were then assigned to groups such that the mean tumor volume was the same for each treatment group and time point. […] Vehicle was 25% HP-β-CD in water adjusted to pH 7.4.
(§3) Measurement Parameters: Study animals were monitored not only for tumor growth but also behavior such as mobility, food and water consumption (by cage side checking only), body weight (BW), eye/hair matting and any other abnormal effect. Any mortality and/or abnormal clinical signs was recorded. Sponsor was notified immediately if abnormal clinical signs, or if tolerability issues were observed. Body weights of all animals were measured and recorded twice per week. The measurement of tumor size was conducted twice weekly with a caliper and recorded. The tumor volume (mm3) was estimated using the formula: TV=a×b2/2, where “a” and “b” are long and short diameters of a tumor, respectively.

[5] = target: STAT3 (Homo sapiens, UniProt P40763); test: Deep tandem mass tag proteomics; format: cell-based; conditions: Molm-16 and SU-DHL-1 cells, 8 hours, FIGS. 4 and 13
Method: Total protein was isolated from cells (e.g., Molm-16 and SU-DHL-1) and treated with degrader for 8 hours. Vehicle (DMSO)-treated cells were used as controls. Protein lysates, 2 biological replicates per condition, were prepared at 4 C in 8M urea, 75 mM NaCl, 1 mM EDTA in 50 mM Tris HCl (pH 8), 10 mM NaF, phosphatase inhibitor cocktail 2 (1:100; Sigma, P5726) and cocktail 3 (1:100; Sigma, P0044), 2 μg/mL aprotinin (Sigma, A6103), 10 μg/mL Leupeptin (Roche, 11017101001), and 1 mM PMSF (Sigma, 78830). Lysates were spun at 20,000 rcf for 10 min and supernatant (containing extracted proteins) was transferred to a clean microcentrifuge tube. Protein concentrations were determined using the Pierce BCA assay. Protein lysates were reduced with 5 mM dithiothreitol (Thermo Scientific, 20291) for 45 min at room temperature and alkylated with 10 mM iodoacetamide (Sigma, A3221) for an additional 45 min. […] Online fractionation was performed using a nanoflow Proxeon EASY-nLC 1200 UHPLC system (Thermo Fisher Scientific) and separated peptides were analyzed on a benchtop Orbitrap Q Exactive plus mass spectrometer (Thermo Fisher Scientific). All data were analyzed using Spectrum Mill software package (Agilent Technologies). […] In total, 10,992 proteins were quantified. […]

[6] = test system: SUP-M2 tumor cells; test: Xenograph tumor study, SUP-M2; format: in vivo, NOD SCID mice; conditions: ALK+ALCL xenograph model SUP-M2, intermittent dosing, FIG. 20
Method: as §1, §2, §3

Sequence of STAT3 (P40763 whole entry): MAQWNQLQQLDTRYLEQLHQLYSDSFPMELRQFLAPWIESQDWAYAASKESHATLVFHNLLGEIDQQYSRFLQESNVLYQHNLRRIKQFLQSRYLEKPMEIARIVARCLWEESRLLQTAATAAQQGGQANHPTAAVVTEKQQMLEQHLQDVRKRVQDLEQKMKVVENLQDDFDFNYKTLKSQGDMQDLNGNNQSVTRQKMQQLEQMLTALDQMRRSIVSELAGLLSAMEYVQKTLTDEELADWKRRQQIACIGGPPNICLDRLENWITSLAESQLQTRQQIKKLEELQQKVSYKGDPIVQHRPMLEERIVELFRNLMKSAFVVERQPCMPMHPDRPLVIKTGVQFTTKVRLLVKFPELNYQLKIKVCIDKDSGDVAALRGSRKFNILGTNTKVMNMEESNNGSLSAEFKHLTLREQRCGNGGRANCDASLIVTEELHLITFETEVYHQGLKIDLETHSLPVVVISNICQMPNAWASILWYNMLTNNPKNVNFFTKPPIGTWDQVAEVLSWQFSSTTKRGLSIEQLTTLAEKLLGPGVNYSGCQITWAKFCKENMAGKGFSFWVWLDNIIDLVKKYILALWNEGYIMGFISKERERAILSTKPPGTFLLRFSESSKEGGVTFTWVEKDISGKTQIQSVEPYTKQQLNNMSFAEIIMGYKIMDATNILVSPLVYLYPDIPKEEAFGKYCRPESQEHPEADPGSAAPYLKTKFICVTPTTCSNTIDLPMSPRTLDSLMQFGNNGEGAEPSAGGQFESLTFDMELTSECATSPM

Q: Cn1c(=O)n(C2CCC(=O)NC2=O)c2ccc(C[C@H]3CC[C@@H](CC(=O)N4CC[C@H]5CC[C@@H](C(=O)N[C@@H](CCC(N)=O)C(=O)NC(c6ccccc6)c6ccccc6)N5C(=O)[C@@H](NC(=O)c5cc6cc(C(=O)P(=O)(O)O)ccc6[nH]5)C4)CC3)cc21 (stereo partly drawn) [Compound I-174, 2-[[(5S,8S,10aR)-8-[[(1S)-3-carbamoyl-1-(diphenylmethylcarbamoyl)propyl]carbamoyl]-6-oxo-3-[2-[(1s,4s)-4-[[1-(2,6-dioxopiperidin-3-yl)-3-methyl-2-oxo-1,3-benzodiazol-5-yl]methyl]cyclohexyl]acetyl]-octahydropyrrolo[1,2-a][1,5]diazocin-5-yl]carbamoyl]-1H-indole-5-carbonylphosphonic acid] was tested. Which “decrease of STAT3 necessary to induce SU-DHL-1 apoptosis and inhibit cell growth” value [1] did it give?
A: 90%

Q: What about the “STAT3-mediated gene expression of SOCS3 and PD-L1” value [2] of the same compound?
A: repression of STAT3-mediated gene expression

Q: And the IC50 ([3]; 96 h, ALCL (ALK+), Day 4, read-out: CTG, IC50 μM, Day 4)?
A: 0.047 µM

Q: What about the “CTG (% Max inh), Day 4” value ([3]; ALCL (ALK+), Day 4) of the same compound?
A: (97) %

Q: And the cell proliferation ([3]; FIG. 16)?
A: inhibit

Q: And the tumor regression ([4]; ALK+ALCL xenograph model SU-DHL-1, intermittent dosing, FIG. 19)?
A: achieves tumor regression

Q: What about the “tumor volume, 5 days” value ([4]; IP) of the same compound?
A: A (A<500 mm^3)

Q: And the “tumor volume, 10 days” value ([4]; IP)?
A: A (A<500 mm^3)

Q: And the “tumor volume, 15 days” value ([4]; IP)?
A: A (A<500 mm^3)

Q: And the “tumor volume, 20 days” value ([4]; IP)?
A: A (A<500 mm^3)

Q: What about the “tumor volume, 5 days” value ([4]; IV) of the same compound?
A: A (A<500 mm^3)

Q: And the “tumor volume, 10 days” value ([4]; IV)?
A: A (A<500 mm^3)

Q: And the “tumor volume, 15 days” value ([4]; IV)?
A: A (A<500 mm^3)

Q: What about the “tumor volume, 20 days” value ([4]; IV) of the same compound?
A: A (A<500 mm^3)

Q: And the “selectivity of degradation for STAT3 vs >10,000 other detected proteins” value [5]?
A: highly selective for STAT3

Q: What about the tumor regression [6] of the same compound?
A: achieves tumor regression
